Results from the supplement of paper PMC10307832.

Key:
Test in all cases: relative viability (nuclei count vs DMSO), 5 days (fraction); higher = more cells survive
Serdemetan + Linsitinib = compound: c1ccc2c(CCNc3ccc(Nc4ccncc4)cc3)c[nH]c2c1 [Serdemetan] + C[C@]1(O)C[C@@H](c2nc(-c3ccc4ccc(-c5ccccc5)nc4c3)c3c(N)nccn32)C1 [Linsitinib] (partner 1 µM)
Outline: (§1)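 Cells from lung cancer lines were seeded into 1536-well plates and, one day later, dosed by pin tool. Treatments were either a single drug or a fixed dose of an anchor drug with five library-drug doses (not always all listed) in √10 steps. After 5 days, nuclei were stained in a one-step fixation (final 0.05% Triton X-100, 1% formaldehyde, 1 ug/ml Hoechst) and counted on 4× images, and relative viability is the treated-to-vehicle nuclei ratio, as the median of duplicate plates.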

Selisistat + Luminespib = compound: C1CC(C2=C(C1)C3=C(N2)C=CC(=C3)Cl)C(=O)N [Selisistat] + CCNC(=O)c1noc(-c2cc(C(C)C)c(O)cc2O)c1-c1ccc(CN2CCOCC2)cc1 [Luminespib] (partner 0.01 µM)
Outline: as §1

Serdemetan + Trametinib = compound: c1ccc2c(CCNc3ccc(Nc4ccncc4)cc3)c[nH]c2c1 [Serdemetan] + CC(=O)Nc1cccc(-n2c(=O)n(C3CC3)c(=O)c3c(Nc4ccc(I)cc4F)n(C)c(=O)c(C)c32)c1 [Trametinib] (partner 0.02 µM)
Outline: as §1

Serdemetan + Decitabine = compound: c1ccc2c(CCNc3ccc(Nc4ccncc4)cc3)c[nH]c2c1 [Serdemetan] + Nc1ncn([C@H]2C[C@H](O)[C@@H](CO)O2)c(=O)n1 [Decitabine] (partner 2 µM)
Outline: as §1

Cell Line | relative viability (Serdemetan + Linsitinib; first compound 0.04 µM) | relative viability (Serdemetan + Linsitinib; first compound 0.1265 µM) | relative viability (Serdemetan + Linsitinib; first compound 0.4 µM) | relative viability (Serdemetan + Linsitinib; first compound 1.265 µM) | relative viability (Serdemetan + Linsitinib; first compound 4 µM) | relative viability (Selisistat + Luminespib; first compound 0.4 µM) | relative viability (Selisistat + Luminespib; first compound 1.265 µM) | relative viability (Selisistat + Luminespib; first compound 4 µM) | relative viability (Selisistat + Luminespib; first compound 12.65 µM) | relative viability (Selisistat + Luminespib; first compound 40 µM) | relative viability (Serdemetan + Trametinib; first compound 0.04 µM) | relative viability (Serdemetan + Trametinib; first compound 0.1265 µM) | relative viability (Serdemetan + Trametinib; first compound 0.4 µM) | relative viability (Serdemetan + Trametinib; first compound 1.265 µM) | relative viability (Serdemetan + Trametinib; first compound 4 µM) | relative viability (Serdemetan + Decitabine; first compound 0.04 µM) | relative viability (Serdemetan + Decitabine; first compound 0.1265 µM) | relative viability (Serdemetan + Decitabine; first compound 0.4 µM) | relative viability (Serdemetan + Decitabine; first compound 1.265 µM) | relative viability (Serdemetan + Decitabine; first compound 4 µM)
LCLC-103H | 0.81 | 1.06 | 1.09 | 0.918 | 0.778 | 1.06 | 0.936 | 0.926 | 0.863 | 1.06 | 0.686 | 0.671 | 0.684 | 0.538 | 0.638 | 0.73 | 0.663 | 0.426 | 0.587 | 0.687
LK-2 | 0.48 | 0.545 | 0.527 | 0.49 | 0.491 | 0.193 | 0.161 | 0.182 | 0.198 | 0.188 | 0.697 | 0.79 | 0.809 | 0.752 | 0.757 | 0.37 | 0.29 | 0.274 | 0.223 | 0.283
LOU-NH91 | 0.962 | 1.01 |  | 0.894 | 0.83 | 0.269 | 0.322 | 0.348 | 0.336 | 0.406 | 0.782 | 0.798 |  |  | 0.839 | 0.813 | 0.845 |  |  | 0.872
LU99A | 0.501 | 0.481 | 0.421 | 0.158 | 0.162 | 0.258 | 0.214 | 0.301 | 0.291 | 0.223 | 0.574 | 0.453 | 0.483 | 0.277 | 0.224 | 0.943 | 0.84 | 0.775 | 0.419 | 0.277
LXF-289 | 0.953 | 0.95 | 0.863 | 0.785 | 0.765 | 0.601 | 0.565 | 0.696 | 0.686 | 0.673 | 0.638 | 0.624 | 0.652 | 0.621 | 0.503 | 0.354 | 0.357 | 0.349 | 0.268 | 0.337
NCI-H23 | 0.571 | 0.684 | 0.747 | 0.504 | 0.561 | 0.188 | 0.203 |  | 0.204 | 0.197 | 0.354 | 0.399 | 0.426 |  | 0.363 | 0.303 | 0.308 | 0.223 |  | 0.302
NCI-H322M | 0.923 | 0.955 | 0.827 | 0.863 | 0.836 | 0.875 | 0.82 | 0.562 | 0.868 | 0.812 | 0.502 | 0.528 | 0.488 | 0.427 | 0.431 | 0.667 | 0.675 | 0.682 | 0.534 | 0.647
NCI-H358 | 0.672 | 0.781 | 0.679 | 0.465 | 0.651 | 0.435 | 0.341 |  | 0.469 | 0.471 | 0.135 | 0.144 | 0.12 | 0.0947 | 0.109 | 0.186 | 0.234 | 0.221 | 0.18 | 0.195
NCI-H441 | 0.454 | 0.608 | 0.532 | 0.289 | 0.325 | 0.294 | 0.382 | 0.349 | 0.339 | 0.344 | 0.462 | 0.508 | 0.436 | 0.435 | 0.414 | 0.256 | 0.22 | 0.249 | 0.219 | 0.172
